Where a SMILES comes first, the peptide text is derived from it.
Key:
physchem [1] = test: physchem
physchem [2] = test: physchem; remark: listed apart in the source

CN(C)CCC(c1ccc(Br)cc1)c1ccccn1 (stereo unspecified) [BROMPHENIRAMINE]
pKa (physchem [1]): 10.1

CCOC(=O)c1csc(NC(=O)CN2CCCCC2)n1
pKa (physchem [1]): 9.9

C=C(CC)C(=O)c1ccc(OCC(=O)O)c(Cl)c1Cl [ETHACRYNIC ACID]
pKa (physchem [1]): 3.1

CC1CCN(CC(=O)Nc2ncc(Cc3cccc4ccccc34)s2)CC1
pKa (physchem [1]): 10.6

COc1cc(CN2CCC3(C=Cc4ccccc43)CC2)cc(OC)c1OC
pKa (physchem [1]): 8.4

CCN(C)C(=O)Oc1cccc([C@H](C)N(C)C)c1 [RIVASTIGMINE]
pKa (physchem [2]): 8.8

CC(CN(C)C)CN1c2ccccc2CCc2ccccc21 (stereo unspecified) [TRIMIPRAMINE]
pKa (physchem [1]): 8.5

N[C@@H](Cc1ccccc1)C(=O)O [PHENYLALANINE]
pKa (physchem [2]; pKa): 9.08

COc1ccc(C(=O)CCC(=O)O)cc1
pKa (physchem [1]): 4.7

O=C(CN1CCCCC1)Nc1nc(-c2ccc(Cl)cc2)cs1
pKa (physchem [1]): 10.4

CCn1cc(C(=O)O)c(=O)c2cc(F)c(N3CCNC(C)C3)c(F)c21 (stereo unspecified) [LOMEFLOXACIN]
pKa (physchem [1]): 5.74

Cc1ccc(-n2ncc(C(=O)Nc3nccs3)c2C2CCNCC2)cc1C
pKa (physchem [1]): 9.5

Cn1nnnc1SCC1=C(C(=O)O)N2C(=O)[C@@H](NC(=O)[C@H](O)c3ccccc3)[C@H]2SC1 [CEFAMANDOLE]
pKa (physchem [1]): 3.4

CCCCNc1ccc(C(=O)OCCN(C)C)cc1 [TETRACAINE]
pKa (physchem [1]): 8.6

CCCCOc1ccc(C(=O)CCN2CCCCC2)cc1 [DYCLONINE]
pKa (physchem [1]): 9

O=C1NCN(c2ccccc2)C12CCN(CCCC(c1ccc(F)cc1)c1ccc(F)cc1)CC2
pKa (physchem [1]): 7.7

CN(C)CCC=C1c2ccccc2C=Cc2ccccc21 [CYCLOBENZAPRINE]
pKa (physchem [1]): 8.24

Cc1ccc(C)c(N2CCN(C3C4CC5CC(C4)CC3C5)CC2)c1 (stereo unspecified)
pKa (physchem [1]): 7.6

CC1CN(c2c(F)c(N)c3c(=O)c(C(=O)O)cn(C4CC4)c3c2F)CC(C)N1 (stereo unspecified)
pKa (physchem [1]): 6.1

N[C@@H](Cc1c[nH]c2ccccc12)C(=O)N[C@@H](Cc1ccccc1)C(=O)O (H-Trp-Phe-OH)
pKa (physchem [2]; pKa): 3.18

Cc1ccc(C)c(N2CCN(C3CCCCCC3)CC2)c1
pKa (physchem [1]): 7.54

NC(=O)C1CCN(CC(=O)Nc2nc(-c3ccccc3)cs2)CC1
pKa (physchem [1]): 10.2

Cc1cnc(NC(=O)CN2CCCCC2)s1
pKa (physchem [1]): 10.6

CC[C@H]1OC(=O)[C@H](C)[C@@H](O[C@H]2C[C@@](C)(OC)[C@@H](O)[C@H](C)O2)[C@H](C)[C@@H](O[C@@H]2O[C@H](C)C[C@H](N(C)C)[C@H]2O)[C@](C)(O)C[C@@H](C)/C(=N\OCOCCOC)[C@H](C)[C@@H](O)[C@]1(C)O [ROXITHROMYCIN]
pKa (physchem [2]; pKa): 9.27

CCn1cc(C(=O)O)c(=O)c2cc(F)c(N3CCNCC3)cc21 [NORFLOXACIN]
pKa (physchem [1]): 6.05

Cc1ccc(C)c(N2CCN(C3CCC(C)C3)CC2)c1 (stereo unspecified)
pKa (physchem [1]): 7.5

O=C(CN1CCCCC1)Nc1ncc(Cc2cccc3ccccc23)s1
pKa (physchem [1]): 10.5

CC1OC(O[C@H]2/C=C/C=C/C=C/C=C/C=C/C=C/C=C/[C@H](C)[C@@H](O)[C@@H](C)[C@H](C)OC(=O)C[C@H](O)C[C@H](O)CC[C@@H](O)[C@H](O)C[C@H](O)C[C@]3(O)C[C@H](O)[C@@H](C(=O)O)[C@H](C2)O3)C(O)C(N)C1O (stereo partly specified)
pKa (physchem [1]): 3.1

CCOc1cc(CC(=O)N[C@@H](CC(C)C)c2ccccc2N2CCCCC2)ccc1C(=O)O [REPAGLINIDE]
pKa (physchem [1]): 3.75

CC[C@]12CCCN3CCc4c(n(c5ccccc45)[C@@](O)(C(=O)OC)C1)C32 (stereo partly specified)
pKa (physchem [1]): 7.9

CN[C@H]1CC[C@@H](c2ccc(Cl)c(Cl)c2)c2ccccc21 [SERTRALINE]
pKa (physchem [1]): 8

O=C(N[C@H]1CCCC[C@H]1C(=O)O)c1ccccc1
pKa (physchem [1]): 3.3

CCN(CC)CCOC(=O)c1ccc(N)cc1Cl [CHLOROPROCAINE]
pKa (physchem [1]): 9

Nc1c2c(nc3ccccc13)-c1ccccc1CC2
pKa (physchem [1]): 8.1

CCOC(=O)C1=C[C@]2(CC)CCCN3CCc4c(n1c1ccccc41)[C@@H]32 [VINPOCETINE]
pKa (physchem [1]): 7.1

CC(Cc1ccc(O)c(O)c1)(NN)C(=O)O (stereo unspecified)
pKa (physchem [1]): 3.5

CN1CCN(C2=Nc3cc(Cl)ccc3Nc3ccccc32)CC1 [CLOZAPINE]
pKa (physchem [1]): 7.8

O=C(O)c1ccccc1-c1ncc(-c2ccccc2)o1
pKa (physchem [1]): 2.9

CC(C(=O)O)c1ccc(C(=O)c2cccs2)cc1 (stereo unspecified) [SUPROFEN]
pKa (physchem [1]): 4.3

Cc1ccc(C)c(N2CCN(C3CCCC(C)C3)CC2)c1 (stereo unspecified)
pKa (physchem [1]): 7.16

CN(C)CCCN1c2ccccc2CCc2ccc(Cl)cc21 [CLOMIPRAMINE]
pKa (physchem [1]): 9.1

O=C1CCCN1CC#CCN1CCCC1 [OXOTREMORINE]
pKa (physchem [1]): 8.4

Clc1ccc2c(c1)N=C(N1CCNCC1)c1ccccc1N2 [N-DESMETHYLCLOZAPINE]
pKa (physchem [1]): 8.9

O=C(O)c1ccccc1C(=O)Nc1nc(-c2ccccc2)cs1
pKa (physchem [1]): 3.4

COc1ccc2nc(NC(=O)CN3CCC(C)CC3)sc2c1
pKa (physchem [1]): 10

CN1CCCCC1CCN1c2ccccc2Sc2ccc([S+](C)[O-])cc21 (stereo unspecified) [MESORIDAZINE]
pKa (physchem [1]): 9.5

Cc1ccc(/C(=C\CN2CCCC2)c2ccccn2)cc1 [TRIPROLIDINE]
pKa (physchem [1]): 9.25

COc1ccc2nc(NC(=O)CN3CCCCC3)sc2c1
pKa (physchem [1]): 10

Cc1cccc(-n2ncc(C(=O)Nc3nccs3)c2C2CCNCC2)c1
pKa (physchem [1]): 9.5

CC(NCCC(c1ccccc1)c1ccccc1)c1ccccc1 (stereo unspecified) [FENDILINE]
pKa (physchem [1]): 9.3

FC(F)(F)c1cccc(N2CCN(C3C4CC5CC(C4)CC3C5)CC2)c1 (stereo unspecified)
pKa (physchem [1]): 7.45

CN(C/C=C/C#CC(C)(C)C)Cc1cccc2ccccc12 [TERBINAFINE]
pKa (physchem [1]): 7.12

Nc1cc(-c2ccccc2)nc2ccc(Br)cc12
pKa (physchem [1]): 7.4

CC(CN1c2ccccc2Sc2ccccc21)N(C)C (stereo unspecified) [PROMETHAZINE]
pKa (physchem [1]): 8.7

CC(C)(C)c1ccc(C(O)CCCN2CCC(C(O)(c3ccccc3)c3ccccc3)CC2)cc1 (stereo unspecified) [TERFENADINE]
pKa (physchem [1]): 8.5

CC(CN(C)C)CN1c2ccccc2Sc2ccccc21 (stereo unspecified) [METHYLPROMAZINE]
pKa (physchem [1]): 8.5

Nc1cc(-c2ccccc2)nc2ccc(Cl)cc12
pKa (physchem [1]): 7.4

O=C(O)c1cccnc1 [NIACIN]
pKa (physchem [1]): 2.4

CN(C)CCNC(=O)c1cc(-c2ccccc2)nc2ccccc12
pKa (physchem [1]): 8.3

CN(C)CCC=C1c2ccccc2CCc2ccccc21 [AMITRIPTYLINE]
pKa (physchem [1]): 8.2

Cc1c(Cl)cccc1-n1ncc(C(=O)Nc2nccs2)c1C1CCNCC1
pKa (physchem [1]): 9.4

CC(C(=O)O)c1ccc(-c2ccccc2)c(F)c1 (stereo unspecified) [FLURBIPROFEN]
pKa (physchem [1]): 4.3

CC1CCC(N2CCN(c3ccccc3F)CC2)CC1 (stereo unspecified)
pKa (physchem [1]): 7.4

C=CC1=C(C(=O)O)N2C(=O)[C@@H](NC(=O)/C(=N\O)c3csc(N)n3)[C@H]2SC1
pKa (physchem [1]): 3.35

O=C(O)c1cc(-c2ccccc2)nc(O)n1
pKa (physchem [1]): 2.5

CCCCC1CCN(CCCC(=O)c2ccccc2C)CC1
pKa (physchem [1]): 7.85

c1cnc(N2CCN(C3CC4CCC3C4)CC2)nc1 (stereo unspecified)
pKa (physchem [1]): 8

CC1CCN(CC(=O)Nc2nc(-c3ccccc3)cs2)CC1
pKa (physchem [1]): 10.5

O=c1[nH]c2ccccc2n1C1CCN(CCCC(c2ccc(F)cc2)c2ccc(F)cc2)CC1 [PIMOZIDE]
pKa (physchem [1]): 7.45

O=C(CCCN1CC=C(n2c(=O)[nH]c3ccccc32)CC1)c1ccc(F)cc1 [DROPERIDOL]
pKa (physchem [1]): 7.6

NCc1cc(-c2ccccc2)nc2ccccc12
pKa (physchem [1]): 8.37

O=C(CCCN1CCC(O)(c2ccc(Cl)cc2)CC1)c1ccc(F)cc1 [HALOPERIDOL]
pKa (physchem [1]): 8.5

O=C(O)CSCC(=O)Nc1nc(-c2ccccc2)c(-c2ccccc2)s1
pKa (physchem [1]): 4

Cc1nc(NC(=O)CCCC(=O)O)sc1C
pKa (physchem [1]): 2.5

COc1ccc2nc(-c3ccccc3)cc(N)c2c1
pKa (physchem [1]): 8.7

CC/C(=C(\c1ccccc1)c1ccc(OCCN(C)C)cc1)c1ccccc1 [TAMOXIFEN]
pKa (physchem [1]): 10

From ChEMBL document CHEMBL2448811, “Comparison of the accuracy of experimental and predicted pKa values of basic and acidic compounds” (Pharm Res, 2013)
